{"source": "patent EP0454060B1", "about": "“3-(Mercaptoalkyl)-quinazoline-2,4(1H,3H)-diones, processes for their preparation, and pharmaceutical compositions” (priority 1990, dated 1991)", "data": [{"tested_on": "SE-spezifischer rosettenbildender Zellen", "experiment": "Rosette test (SE-specific rosettes)", "type": "in vivo, Maus (Inzuchtstamm CBA)", "settings": "oral administration", "excerpt": "Der Nachweis immunstimulierender Effekte wurde weiterhin an der Maus (Inzuchtstamm CBA) und u. a. mit Hilfe folgender Nachweismethoden geführt: • Plaque-Test zum Nachweis von SE-spezifischen IgM- und IgG-PBZ, • Rosettentest.\nAus den Werten wird deutlich, daß die Verbindungen der allgemeinen Formel I einen gut nachweisbaren Effekt auf die Effektor-T-Lymphozyten-abhängige verzögerte Uberempfindlichkeit haben. Kontaktdermatitis-Werte ab 120 (≙ 20 % Steigerung gegenüber der Kontrolle) bzw. unter 80 werden als Nachweis eines stimulatorischen bzw. suppressorischen Effektes angesehen. Antikörpertiter-Differenzen von >+1 bzw. <-1 verdeutlichen den stimulatorischen bzw. suppressorischen Effekt der Substanzen auf die humorale Immunantwort. 2. Untersuchungen zur immunstimulierenden Wirkung • 2.1 Plaque-Test zum Nachweis von SE-spezifischen IgM- und IgG-PBZ Zur Prüfung immunstimulierender Effekte wurde u. a. auch der Einfluß von Verbindungen der allgemeinen Formel I auf die humorale Immunantwort an Mäusen des Inzuchtstammes CBA und mittels Hämolyse-Plaque-Test (HPT) untersucht. Diese Technik erlaubt die quantitative und getrennte Erfassung IgM- und IgG-Antikörper produzierender Zellen (= Plaque bildende Zellen; PBZ). Die Immunisierung mit Schaferythrozyten (SE) erfolgte am Tag 0, die Substanzapplikation (Tagesdosis 1.10^-5 mol/kg Körpermasse; peroral) an den Tagen -1 bis +3 (zur Erfassung der IgM-PBZ) bzw. an den Tagen +1 bis +5 (zur Erfassung der IgG-PBZ). • 2.2 Ergebnisse: Durch tägliche und über 5 Tage gehende Gabe von 2,0 mg der Verbindung gemäß Beispiel 1 pro kg Körpermasse konnte die Zahl der IgM-PBZ auf einen Durchschnittswert von 352 % im Vergleich zur Kontrolle (100 %) gesteigert werden. Die gleiche Form der Behandlung führte zu einer Erhöhung der IgG-PBZ auf 497 % (Kontrolle: 100 %). In beiden Fällen erwies sich die Differenz zur Kontrolle im t-Test mit p < 0,001 als signifikant. […]", "values": [{"smiles": "O=c1[nH]c2ccccc2c(=O)n1CCCS", "note": "[Beispiel 6, 3-(3-Mercaptopropyl)-chinazolin-2,4(1H,3H)-dion]", "SE-spezifischer rosettenbildender Zellen": "signifikante Förderung"}, {"smiles": "COc1cc2[nH]c(=O)n(CC(C)S)c(=O)c2cc1OC", "note": "(centres unmarked) [Beispiel 14e, 6,7-Dimethoxy-3-(2-mercaptopropyl)-chinazolin-2,4(1H,3H)-dion]", "SE-spezifischer rosettenbildender Zellen": "signifikante Förderung"}]}, {"tested_on": "Kontaktüberempfindlichkeit vom verzögerten Typ (Effektor-T-Lymphozyten-Aktivität)", "experiment": "Percutaneous test for contact hypersensitivity after DNFB immunisation", "type": "in vivo, Meerschweinchen (Albino-Koloniezucht)", "settings": "Sensibilisierungsgrad versus control group; 2 mg/kg daily peroral, day +1 to +6; screening values; from 120 stimulatory, below 80 suppressive", "excerpt": "Der Nachweis einer immunregulatorischen Wirksamkeit wurde am Meerschweinchen (Albino-Koloniezucht) und u. a. mit Hilfe folgender Techniken geführt: • Perkutaner Test zum Nachweis einer Kontaktüberempfindlichkeit vom verzögerten Typ (Effektor-T-Lymphozyten-Aktivität), • Takatsy-Test zum Nachweis DNP-spezifischer Serumantikörper (humorale Immunantwort).\nDer Nachweis der antiviralen Wirksamkeit erfolgte in vitro an Hühnerembryonalzellen mit Vertretern verschiedener Virusgruppen. 1. Untersuchungen zur immunregulatorischen Wirksamkeit 1.1 Perkutaner Test zum Nachweis einer Kontaktüberempfindlichkeit Die epikutane Applikation von Dinitrofluorbenzol (DNFB) führt beim Meerschweinchen und bei der Maus zur Entwicklung einer verzögerten Überempfindlichkeit, eines Immunstatus, der an die klonale Vermehrung TNP-spezifischer T-Lymphozyten (TDTH-Ly) gebunden ist. Erfolgt nach einer Latenzperiode von mindestens 5 Tagen eine erneute DNFB-Applikation, kommt es zu einer Freisetzung von Lymphokinen durch Reaktion mit den TDTH-Ly dieses Hautbereiches und dadurch zu einer lokal begrenzten Entzündungsreaktion. Sieben Tage nach der Immunisierung mit 1 %igem DNFB wurden die Flanken der Versuchstiere enthaart und durch Aufbringen je eines Tropfens 0,5 %, 0,1 %, 0,05 %, 0,025 % und 0,01 %iger DNFB-Lösung getestet. Die noch positive Konzentration ist dem Grad der Sensibilisierung umgekehrt proportional. Die Testergebnisse ergeben sich aus Stärke und Anzahl der positiven Hautreaktionen, der Stimulierungsindex (SI) aus dem Vergleich der Test- und Kontrolltiere. Die Substanzbehandlung erfolgte peroral. Mittels Schlundsonde wurde eine tägliche Dosis von 2 mg/kg Körpermasse als Suspension in Wasser gegeben. Behandlungsdauer: 1 Tag + 1 (ein Tag nach der Immunisierung) bis +6. Die Kontrolltiere erhielten nur die eingesetzte Lactose. 1.2 Takatsy-Test Nach Immunisierung mit Dinitrofluorbenzol (DNFB) kommt es beim Meerschweinchen auch zur Bildung DNP-spezifischer humoraler Antikörper, die bevorzugt der IgG1-Substanzklasse angehören. 14 Tage nach primärer epikutaner Applikation von DNFB wurde den Versuchstieren Blut durch Herzpunktion entnommen. Die Bestimmung der Antikörperkonzentration erfolgte nach einer von Takatsy beschriebenen Methode (Takatsy, G.: A new method for the preparation of serial dilutions in a quick and accurate way. Kiserletes Orvostudomany 2 (1950) 263 - 396). Als Indikatorzellen wurden TNP-beladene Schaferythrozyten verwendet (Kopplung nach Rittenberg und Pratt; Rittenberg, M. B. and Pratt, K. L.: Antitrinitrophenyl (TNP) plaque assay. Primary response of BALB/c mice to soluble and particulate immunogen. Proc. Soc. exp. Biol. Med., 132 (1969) 575 - 579). 1.3 Ergebnisse Sensibilisierungsgrad (%) und Serumantikörperkonzentration (AK-Titer-Differenz) gegenüber der jeweiligen Kontrollgruppe (Screening-Werte)\nAus den Werten wird deutlich, daß die Verbindungen der allgemeinen Formel I einen gut nachweisbaren Effekt auf die Effektor-T-Lymphozyten-abhängige verzögerte Uberempfindlichkeit haben. Kontaktdermatitis-Werte ab 120 (≙ 20 % Steigerung gegenüber der Kontrolle) bzw. unter 80 werden als Nachweis eines stimulatorischen bzw. suppressorischen Effektes angesehen. Antikörpertiter-Differenzen von >+1 bzw. <-1 verdeutlichen den stimulatorischen bzw. suppressorischen Effekt der Substanzen auf die humorale Immunantwort. 2. Untersuchungen zur immunstimulierenden Wirkung • 2.1 Plaque-Test zum Nachweis von SE-spezifischen IgM- und IgG-PBZ Zur Prüfung immunstimulierender Effekte wurde u. a. auch der Einfluß von Verbindungen der allgemeinen Formel I auf die humorale Immunantwort an Mäusen des Inzuchtstammes CBA und mittels Hämolyse-Plaque-Test (HPT) untersucht. Diese Technik erlaubt die quantitative und getrennte Erfassung IgM- und IgG-Antikörper produzierender Zellen (= Plaque bildende Zellen; PBZ). […]", "units": {"Kontaktdermatitis (Kontrolle: 100) 24-Stunden-Reaktion": "%", "Kontaktdermatitis (Kontrolle: 100) 48-Stunden-Reaktion": "%"}, "values": [{"smiles": "O=c1[nH]c2ccccc2c(=O)n1CCCS", "note": "[Beispiel 6, 3-(3-Mercaptopropyl)-chinazolin-2,4(1H,3H)-dion]", "Kontaktdermatitis (Kontrolle: 100) 24-Stunden-Reaktion": 70, "Kontaktdermatitis (Kontrolle: 100) 48-Stunden-Reaktion": 40}, {"smiles": "O=c1[nH]c2ccc(Cl)cc2c(=O)n1CCS", "note": "[Beispiel 13, 6-Chlor-3-(2-mercaptoethyl)-chinazolin-2,4(1H,3H)-dion]", "Kontaktdermatitis (Kontrolle: 100) 24-Stunden-Reaktion": 120, "Kontaktdermatitis (Kontrolle: 100) 48-Stunden-Reaktion": 130}, {"smiles": "O=c1[nH]c2ccc(F)cc2c(=O)n1CCS", "note": "[Beispiel 14c, 6-Fluor-3-(2-mercaptoethyl)-chinazolin-2,4(1H 3H)-dion]", "Kontaktdermatitis (Kontrolle: 100) 24-Stunden-Reaktion": 90, "Kontaktdermatitis (Kontrolle: 100) 48-Stunden-Reaktion": 105}, {"smiles": "COc1cc2[nH]c(=O)n(CCS)c(=O)c2cc1OC", "note": "[Beispiel 3, 3-(2-Mercaptoethyl)-6,7-dimethoxychinazolin-2,4(1H,3H)-dion]", "Kontaktdermatitis (Kontrolle: 100) 24-Stunden-Reaktion": 100}, {"smiles": "O=c1[nH]c2ccc(Br)cc2c(=O)n1CCS", "note": "[Beispiel 5, 6-Brom-3-(2-mercaptoethyl)-chinazolin-2,4(1H,3H)-dion]", "Kontaktdermatitis (Kontrolle: 100) 24-Stunden-Reaktion": 150, "Kontaktdermatitis (Kontrolle: 100) 48-Stunden-Reaktion": 120}, {"smiles": "Cc1ccc2[nH]c(=O)n(CCCS)c(=O)c2c1", "note": "[Beispiel 12, 6-Methyl-3-(3-mercaptopropyl)-chinazolin-2,4(1H,3H)-dion]", "Kontaktdermatitis (Kontrolle: 100) 24-Stunden-Reaktion": 120, "Kontaktdermatitis (Kontrolle: 100) 48-Stunden-Reaktion": 130}, {"smiles": "CC(S)Cn1c(=O)[nH]c2ccccc2c1=O", "note": "(centres unmarked) [Beispiel 7, 3-(2-Mercaptopropyl)-chinazolin-2,4(1H,3H)-dion]", "Kontaktdermatitis (Kontrolle: 100) 24-Stunden-Reaktion": 230}, {"smiles": "COc1cc2[nH]c(=O)n(CC(C)S)c(=O)c2cc1OC", "note": "(centres unmarked) [Beispiel 14e, 6,7-Dimethoxy-3-(2-mercaptopropyl)-chinazolin-2,4(1H,3H)-dion]", "Kontaktdermatitis (Kontrolle: 100) 24-Stunden-Reaktion": 100}, {"smiles": "O=c1[nH]c2ccc(Cl)cc2c(=O)n1CCCS", "note": "[Beispiel 8, 6-Chlor-3-(3-mercaptopropyl)-chinazolin-2,4(1H,3H)-dion]", "Kontaktdermatitis (Kontrolle: 100) 24-Stunden-Reaktion": 100, "Kontaktdermatitis (Kontrolle: 100) 48-Stunden-Reaktion": 115}, {"smiles": "O=c1[nH]c2ccc(F)cc2c(=O)n1CCCS", "note": "[Beispiel 14d, 6-Fluor-3-(3-mercaptopropyl)-chinazolin-2,4(1H,3H)-dion]", "Kontaktdermatitis (Kontrolle: 100) 24-Stunden-Reaktion": 100, "Kontaktdermatitis (Kontrolle: 100) 48-Stunden-Reaktion": 150}, {"smiles": "Cc1ccc2[nH]c(=O)n(CCS)c(=O)c2c1", "note": "[Beispiel 14a, 6-Methyl-3-(2-mercaptoethyl)-chinazolin-2,4(1H,3H)-dion]", "Kontaktdermatitis (Kontrolle: 100) 24-Stunden-Reaktion": 60, "Kontaktdermatitis (Kontrolle: 100) 48-Stunden-Reaktion": 60}, {"smiles": "O=c1[nH]c2ccc(Br)cc2c(=O)n1CCCS", "note": "[Beispiel 14b, 6-Brom-3-(3-mercaptopropyl)-chinazolin-2 4(1H 3H)-dion]", "Kontaktdermatitis (Kontrolle: 100) 24-Stunden-Reaktion": 105, "Kontaktdermatitis (Kontrolle: 100) 48-Stunden-Reaktion": 100}]}]}
